The text below walks through data of a melting point compilation (Tetko et al.; mined from patent text by program, amines drawn as free bases though some values may be those of a salt).

Usually melting point stands for the temperature, or range, at which the solid turns liquid.

The structures appear in SMILES notation.

`Cc1oc2c(-n3c(=O)cc(C(F)(F)F)n(C)c3=O)ccc(Cl)c2c1[N+](=O)[O-]` had a melting point of 174 to 175 °C.

Take `Cc1ccccc1C1CC(=O)c2c(C)c[nH]c2C1` (centres undefined): the melting point fell in the range of 190 to 191 °C.

The compound `CCCCn1c(N)cc(=O)n(CCCC)c1=O` registered a melting point of 90.1 to 92.4 °C.

With `COc1ccccc1N1CCN(CCCNC(=O)c2cccc3c(=O)c(C)c(CCc4ccccc4)oc23)CC1`, the melting point was 142 to 146 °C.

Take `CC1CCN(c2cc3nc(C(C)(C)C)sc3cc2N=C=S)CC1`: the melting point lay in the range of 54 to 58 °C.

`Cc1c(Br)sc2cc(C(=O)CBr)ccc12`: the melting point is 126 to 128 °C.

Take `Cc1oc(-c2ccc(Cl)cc2)nc1COc1cccc(/C=C/C(C)n2oc(=O)[nH]c2=O)c1` (centres undefined): the melting point was in the range of 172 to 174 °C.

In turn, `CCOc1c(C)ccc2c1c1cc(Br)ccc1n2C(=O)OC(C)(C)C` registered a melting point of 137 °C.

Compound `O=[N+]([O-])c1ccc(Oc2ccc(C(F)(F)F)cc2Cl)cc1NCP(=O)(O)O` showed a melting point of 148 to 150 °C.

In the case of `CCC(CC)n1cc(Cl)nc(N2CCc3cc(Br)cc(Cl)c32)c1=O`, the melting point was in the range of 156 to 157 °C.

Take `O=C1N(N2CCOCC2)c2ccccc2C1(Cc1ccncc1)c1ccccc1` (centres undefined): the melting point was in the range of 190 to 192 °C.

Consider `CCOC(=O)c1cnc2nn(C)cc2c1NCCCN(C)C`, for which the melting point was in the range of 61 to 63 °C.

In turn, `C=CCOc1ccccc1-c1ccc(C(N)=O)c(=O)[nH]1` registered a melting point of 210 to 212 °C.

In turn, `CN(C(=O)C1CCn2cccc21)c1ccccc1` (centres undefined) gave a melting point of 112 °C.

In the case of `COc1cc(N2CCCN(C)CC2)ccc1Nc1ncc2ccc(-c3ccccc3OC)n2n1`, the melting point lay in the range of 69 to 77 °C.

For the compound `Cc1nc(N2CCN(Cc3ccc(F)cc3)C2=O)sc1C(=O)NCc1ccccc1`, the melting point is 192 to 193 °C.

Compound `COc1ccccc1CCC1CNC(=O)O1` (centres undefined) gave a melting point of 76 to 77 °C.

As for `CC(C)C(=O)Nc1c(Cl)cccc1C(=O)Nc1ccc(OC(F)(F)F)cc1`, the melting point is 230 to 233 °C.

In turn, `COc1cc(N)ccc1S(=O)(=O)n1c(=O)n(C2CCCCC2)c2cc(Cl)ccc21` showed a melting point of 211 °C.

With `Cc1ccc(CN(C)C(=O)c2cnn(C)c2C(=O)Nc2ccn3nc(-c4ccccc4)nc3c2)cn1`, the melting point is 110 to 150 °C.

Take `CCc1c(C)nc2ccc(Cl)cn2c1=O`: the melting point was 114 to 116 °C.

In turn, `CCOC(=O)C1=CC(CF)(CF)Oc2ccc([N+](=O)[O-])cc21` registered a melting point of 96 to 98 °C.

In turn, `CC(=O)OCC(=O)C1(O)CCC2C3CC=C4C=C(OC(C)=O)C=CC4(C)C34OC4CC21C` (centres undefined) gave a melting point of 194 °C.

Consider `CCOC1CC2(C)C(CCC3C4CCC(C(=O)OC)C4(C)CC(NCCC(C)C)C32)CC1O` (centres undefined), for which the melting point fell in the range of 122 to 124 °C.

For `CC(=O)Nc1c(C(=O)c2cccc(C)n2)[nH]c2cc(Cl)ccc12`, the melting point fell in the range of 195 to 196 °C.

Regarding `CC(C)(C)OC(=O)NC(Cc1c[nH]c2ccccc12)C(=O)OCCl` (centres undefined), the melting point was 155 to 157 °C.

`Cc1c(-c2ccncc2)[nH]c(-c2ccncc2)c1C(=O)CC(C)C` came in with a melting point of 199 to 201 °C.

`CCOC(=O)C=Cc1ccc(OC)c(OC)c1` had a melting point of 53 to 55 °C.

On to `Cc1ccc(O)c(C)c1C=O`, for which the melting point lay in the range of 159 to 165 °C.

Turning to `O=C(Nc1ccc(F)cc1F)Nc1c(-c2ccccc2)c2cc(Cl)ccc2[nH]c1=O`, the melting point is 222 to 224 °C.

Take `C[C@]12CCC(=O)N[C@@H]1CCc1cc(Sc3ccccc3F)ccc12`: the melting point is 196 to 198 °C.

`CCC(CC)c1ccc(Cl)c2nc(Nc3cnc(OC)cc3C)n(CCCCO)c12` registered a melting point of 146 to 147 °C.

As to `COc1cc2c(C3=CCN(C[C@H](O)COc4cccc5[nH]ccc45)CC3)c[nH]c2cc1Cl`, the melting point lay within 115 to 120 °C.

As to `Cc1ccc(C2=C(c3ccc(S(N)(=O)=O)cc3)CCC2)cn1`, the melting point fell in the range of 108 to 110 °C.

Compound `CN1[C@@H](c2cccc(Br)c2)c2ccccc2S1(=O)=O` came in with a melting point of 157 °C.

As for `O=C(O)/C=C/c1ccc(/C=C/c2ccncc2)nc1`, the melting point is more than 250 °C.

As to `Nc1cc(C(=O)O)cc(OCc2ccccn2)c1C(=O)c1ccccc1`, the melting point lay within 212 to 213 °C.

With `O=S1(=O)c2cccc3cccc(c23)N1CCN1CCC(CC2=Cc3ccccc3C2)CC1`, the melting point came to 176 °C.

As to `CC(=O)c1cccc2nc[nH]c12`, the melting point lay in the range of 220 to 223 °C.

The compound `Cc1ccc(/C=C/c2c(C(C)C)nc(C(C)C)c(CO)c2-c2ccc(F)cc2)cc1` yielded a melting point of 131 to 133 °C.

`O=CN(c1cccc(C(F)(F)F)c1)c1cccc(C(F)(F)F)c1` gave a melting point of 63 to 65 °C.

`COc1ccc(F)cc1C(C)(C)CC(O)(Cc1cc(C)cc(C)n1)C(F)(F)F` (centres undefined) registered a melting point of 95 to 98 °C.

`CC1=Nc2cc(C)c(C)cc2C(=O)C1` displayed a melting point of 120 to 122 °C.

The compound `CN(C)C(=O)n1nc(-c2ccccc2)c(-c2ccccc2)c(C#N)c1=O` displayed a melting point of 231 °C.

The compound `CC(=O)N1CCc2cc(C(=O)CN(Cc3ccccc3)Cc3ccccc3)ccc21` came in with a melting point of 130 °C.

With `CC(C)c1nsc(N=C(Cl)N(C)C)c1C#N`, the melting point was in the range of 72 to 75 °C.

`CNc1nc(OC)ccc1Nc1nc(Nc2cc3c(cc2OC)CCN(CC(=O)N(C)C)CC3)ncc1Cl`: the melting point is 191 to 194 °C.

In the case of `CC(C)(C)N1C(=O)c2ccc(C(=O)Cl)cc2S1(=O)=O`, the melting point lay within 185 to 186 °C.

For the compound `CNC(=S)OCc1nc(C(C)C)c(Sc2cc(Cl)cc(Cl)c2)n1C`, the melting point lay within 119 to 121 °C.

As to `O=COC(Cc1ccccc1)C1C(=O)NC1SC(c1ccccc1)(c1ccccc1)c1ccccc1` (centres undefined), the melting point was 169 to 171 °C.

The compound `CCOc1cc2c(Nc3cc(OC)c(Cl)cc3Cl)c(C#N)cnc2cc1NC(C)=O` came in with a melting point of 245 to 248 °C.

Compound `O=c1c2c(cc3n1CCCS3)CCCC2` displayed a melting point of 123 to 124 °C.

Take `COc1cc(C(=O)N(C(C)C)C2CCCCC2)ccc1Cn1c(CN(C)C)nc2cccnc21`: the melting point is 124 to 125 °C.

`O=[N+]([O-])c1cccc(C2=NCc3n[nH]nc3-c3ccccc32)c1` returned a melting point of 223 to 225 °C.

In the case of `CCCCC(CC)Cn1c(=O)nc(N(C)C)n(C)c1=O` (centres undefined), the melting point fell in the range of 74 to 75 °C.

For `Cc1cc(C)cc(COC(=O)C(NC(=O)OC(C)(C)C)C(c2ccccc2)c2ccccc2)c1` (centres undefined), the melting point stood at 123 °C.

`CC(C(=S)NCN1CCOCC1)c1ccccn1` (centres undefined) gave a melting point of 69 °C.

Compound `C=C(C)C1=CC(C)(C)Oc2c(OCC)cc(Cc3cnc(N)nc3N)cc21` yielded a melting point of 188 to 189 °C.

`CSC(=NC(C)=O)Nc1ccccc1[N+](=O)[O-]` gave a melting point of 120 to 122 °C.

In turn, `Cc1ccc(-c2nnc(S)nc2-c2ccc(C)cc2)cc1` came in with a melting point of 220 to 223 °C.

Compound `NC1CCC(CCN2CCN(c3ccccc3)CC2)CC1` (centres undefined) came in with a melting point of 65 to 70 °C.

`Clc1nc2ncnn2c(NC2CCCC2)c1-c1ccsc1` registered a melting point of 78 °C.

Turning to `O=C(Nc1ccccc1Cl)C1CN(C(=O)Nc2ccc(C(F)(F)F)cc2)N=C1c1ccc(Cl)cc1` (centres undefined), the melting point is more than 200 °C.

`Clc1cc(CCCn2ccnc2)ccc1OCc1coc(-c2cccs2)n1`: the melting point was in the range of 93 to 94 °C.

In turn, `CCC1(Cc2nc[nH]c2C)CCc2c(C)c3ccccc3n2C1=O` (centres undefined) showed a melting point of 202 to 204 °C.

Compound `CCCc1c(C#N)c(-c2ccc(C#N)cc2)c(C)n1Cc1cnc(Cl)c(COC(=O)CCC(=O)O)c1` gave a melting point of 167 to 168 °C.

Take `CCN(C=Nc1ccc2c(c1)nc(N(C)C)c1cc(N=CN(CC)CC)ccc12)CC`: the melting point was 124 to 126 °C.

On to `CC1(C)C(C=C2CC2(F)F)C1C(=O)O` (centres undefined), for which the melting point was found to be 78.9 °C.

Turning to `CC1=CC(c2ccccc2)C(c2cccs2)=NN1` (centres undefined), the melting point came out at 150 °C.

Turning to `COc1cccc2c(Cl)c(C(=O)C(C)C)cnc12`, the melting point fell in the range of 90 to 92 °C.

The compound `CC(O)Cc1c(O)c2cccnc2n(-c2ccc(Cl)c(Cl)c2)c1=O` (centres undefined) returned a melting point of 232 to 234 °C.

The compound `O=C1NCCN1c1ccc(S(=O)(=O)Nc2ccc(Br)cc2)cc1` had a melting point of 237 to 239 °C.

As to `Cc1nc(Cl)c2c(c1O)COC2c1ccccc1` (centres undefined), the melting point was 230 °C.

`COCC#Cc1ccc(CNC(=O)[C@@H](COC)NC(C)=O)cc1` had a melting point of 141 to 142 °C.

As to `Cc1ccc(S(=O)(=O)OC(C)(c2ccccc2)C(F)(F)F)cc1` (centres undefined), the melting point was determined as 102 °C.

In turn, `CCc1nc(Cl)cc(NN)n1` had a melting point of 147 to 150 °C.

For the compound `CCNC(=O)Nc1ccc(-c2cc3c(Nc4cccc(Cl)c4)ncnc3[nH]2)cc1`, the melting point is more than 290 °C.

Take `CONC(=O)Nc1ccc(-c2sc3c(c2CNC(C)c2ccccc2)c(=O)n(C2CCC(O)CC2)c(=O)n3Cc2c(F)cccc2F)cc1` (centres undefined): the melting point was in the range of 137 to 138 °C.

Consider `NCCON=C1c2ccccc2C2CC2c2ccccc21` (centres undefined), for which the melting point was 133 to 134 °C.

The compound `Oc1ccc(-c2n[nH]c3ccccc23)cc1` returned a melting point of 189 to 190 °C.

Take `Cc1cc(C)c2cccc(OCc3c(C)ccc(S(=O)(=O)N4CCC[C@H]4C(=O)NCCCNC(=O)c4ccc(C=NN)cc4)c3C)c2n1`: the melting point was found to be 150 °C.

The compound `CN1CCN(CCCNc2ccc(Cl)cc2N)CC1` came in with a melting point of 88 to 90 °C.

The compound `O=C(c1cccnc1Cl)N(O)C1CCCCC1` showed a melting point of 151 to 153 °C.

In turn, `O=C(Nc1cccc2c1ncc1c(=O)[nH]cnc12)c1c(Cl)cccc1Cl` showed a melting point of more than 250 °C.

With `COC(=O)c1ccnc(Nc2cc(OC)cc(C(F)(F)F)c2)c1`, the melting point lay within 178 to 179 °C.

`O=C1NC(=O)C(Oc2ccc3ccccc3c2)S1` (centres undefined) yielded a melting point of 221 to 222 °C.

`COc1ccc(C(=O)O)c(Sc2ccc(SC)cc2)c1` displayed a melting point of 202 to 203 °C.

As to `CC1(C)C(=O)N(c2ccc([N+](=O)[O-])c(C(F)(F)F)c2)C(=O)N1CCOCCN1C(=O)N(c2ccc([N+](=O)[O-])c(C(F)(F)F)c2)C(=O)C1(C)C`, the melting point was 186 to 188 °C.

As for `Cc1nc2c(NC(=O)C(C)(C)C)cccn2c1Cl`, the melting point lay within 117 to 118 °C.
